One data set has as its system albino mice. Set-up: method as in PMID 20141879. The following applies: cited from earlier work.
Another data set has as its system rats. Set-up: method as in PMID 20141879. The following applies: cited from earlier work.
Data set [1] relates to caspase-3/7 in MV4-11 cells. The experiment in a line: Caspase-3/7 activity determination (Ac-DEVD-ACC substrate). The format is cell-based, human. The settings on record: MV4-11, 75 µM, 72 h. Here is the method: Caspase-3/7 activity determination was performed according to the protocol previously described. The MV4-11 cells were seeded at the density of 1 × 10^5 cells/mL of culture medium on 24-well plates (Sarstedt, Germany) to the final volume of 2 mL. The cells were exposed to the test compounds at concentrations 75 μM or campthothecin (0.05 μg/mL) as a positive control, for 72 h. After 72 h of the incubation, the cells were collected and centrifuged (5 min., 4 °C, 250×g). Cells were suspended in 50 µL of ice-cold lysis buffer (50 mM HEPES, 10% (w/v) sucrose, 150 mM NaCl, 2 mM EDTA, 1% (v/v) Triton X-100, pH 7.3, IIET, Poland) and incubated 30 min. at 4 °C. After the incubation, 40 µL of each sample was transferred to a white, 96-well plate (Corning, USA) containing 160 µL of the reaction buffer (20 mM HEPES, 10% sucrose, 100 mM NaCl, 1 mM EDTA, 10 mM DTT, 0.02% Trition X-100, pH 7.3) (IIET, Wroclaw, Poland) with 9 µM Ac-DEVD-ACC fluorogenic substrate (λex = 360 nm, λem = 460 nm). The fluorescence increase correlated with the caspase-3/7 level was continuously recorded at 37 °C for 120 min using a Biotek Synergy H4 (Biokom, Warsaw, Poland). Compounds were tested in duplicates in single experiment and each experiment was repeated at least three times independently. Results were normalized to the number of cells in each well and are reported as mean relative caspase-3/7 activity compared to untreated control sample ± SD.

Take “3,7,11,15-tetramethylhexadec-2-en-1-ol [Phytol (1), reference compound]”: the “Lethal dose (LD50)” value in the data set on albino mice is “above 5 g/kg”; in the data set on rats, greater than 10000 mg/kg.

With `CC(C)CCCC(C)CCCC(C)CCC[C@]1(C)CC(=O)O[C@@H]1CCl` (stereo in doubt) [compound 6, trans-5-Chloromethyl-4-methyl-4-(4′,8′,12′-trimethyltridecyl)dihydrofuran-2-one], the “Increase of caspase-3/7 activity compared to the control” value in data set [1] was “about 1.5 times”.

Turning to `C=CC(C)(CCCC(C)CCCC(C)CCCC(C)C)CC(=O)O` (stereo not shown) [compound 3, 3,7,11,15-tetramethyl-3-vinylhexadecanoic acid], the “Increase of caspase-3/7 activity compared to the control” value in data set [1] was found to be 3 times.

Source of the values: paper PMC7896091, “Synthesis of novel phytol-derived γ-butyrolactones and evaluation of their biological activity” (Scientific Reports, 2021).
